Experimental data from patent US10800741B2 (ANCUREALL PHARMACEUTICAL (SHANGHAI) CO., LTD., priority 2017, dated 2020).

How the values were obtained:
RT112/84 = experiment: In vitro growth inhibition of RT112/84 cells; assay type: cell-based; conditions: Homo sapiens, FGFR3-TACC3
Procedure: (§1) Adherent cells were digested with 0.25% trypsin-EDTA (Gibco). Suspension culture cells were collected by centrifugation (1700 rpm, 3 minutes). The supernatant was discarded and the cells were counted. According to each cell growth cycle, different concentrations of cells were prepared (5˜10×10^4 cells per ml), and inoculated to 96-well plates (Corning), with 100 μl per well, and incubated overnight at 37° C., 5% CO2. The next day, the test compound was added to the cultured cells (2 wells in parallel). The final concentration of the solvent was less than 1/1,000. The cells were further cultured for 3 to 5 days and assayed by MTT.
(§2) The MTT test reagent was a Dojindo CCK8 kit and the Microplate Reader was a THERMO […] FC instrument.
(§3) The adherent cells were taken out from the cell culture medium, and immediately added to a freshly prepared complete medium containing 10% CCK8 (5% FBS), 100 ul per hole. The suspended cells were directly added to a CCK8 reagent until reaching a final concentration of 10% and cultured for 1 to 4 hours. When a dark yellow color could be observed in the solvent control wells, the absorbance value at OD450 nm was measured and the cell growth rate was calculated according to the following formula: Cell Growth Rate (%)=100×(T−T0)/(C−T0)
(§4) T=optical density of drug-treated cell wells−optical density of blank control wells; T0=optical density of cell wells before drug treatment−optical density of blank control wells; C=optical density of solvent control wells−optical density of blank control wells. […] The experiments were repeated 1 to 3 times and a statistical analysis of data was conducted.
(§5) Mutations in the FGFR1-4 gene often occur in different types of cancer patients. In order to test the growth inhibition activity of the present compound against tumor cells expressing different FGFR variants, tumor cell lines expressing representative FGFR1-4 were selected for further determining the activity of compounds 25, 66, 38 and 95 of the present invention. BGJ398, a selective inhibitor of FGFR1-4, was used as the control compound. The specific test method is the same as test example 1.

MOLM-13 (FLT3-ITD) = experiment: In vitro growth inhibition of MOLM-13 tumor cells (MTT/CCK8); assay type: cell-based, Human; conditions: Homo sapiens, MOLM-13; in vitro growth inhibition (or induction of apoptosis), cells cultured 3 to 5 days, MTT (CCK8); read-out: IC50 MOLM-13 (FLT3-ITD)
JHH-7 = experiment: In vitro growth inhibition of JHH-7 cells; assay type: cell-based; conditions: Homo sapiens, JHH7, FGFR3+++, FGFR4 +++
Procedure: as §1, §2, §3, §4, §5

A375 = experiment: In vitro growth inhibition of A375 cells; assay type: cell-based; conditions: Homo sapiens, A-375, BRAF V600E, FGFR2 mutant
Procedure: as §1, §2, §3, §4, §5

SK-OV-3 = experiment: In vitro growth inhibition of PI3KCA amplified/mutant tumor cells SK-OV-3; assay type: cell-based; conditions: Homo sapiens; SK-OV-3; PI3KCA H1047R; HER2 amp; read-out: IC50 growth inhibition
Procedure: as §1, with “Suspension” for “Adherent cells were digested with 0.25% trypsin-EDTA (Gibco). Suspension”
(§6) The adherent cells were taken out from the cell culture medium, and immediately added to a freshly prepared complete medium containing 10% CCK8 (5% FBS), 100 ul per hole. The suspended cells were directly added to a CCK8 reagent until reaching a final concentration of 10% and cultured for 1 to 4 hours.
as §4

PLC/PRF/5 = experiment: In vitro growth inhibition of PLC/PRF/5 cells; assay type: cell-based; conditions: Homo sapiens, FGFR3+++, FGFR4 +++
Procedure: as §1, §2, §3, §4, §5

H1581 (FGFR1 amp) = experiment: In vitro growth inhibition of H1581 tumor cells (MTT/CCK8); assay type: cell-based, Human; conditions: Homo sapiens, NCI-H1581; in vitro growth inhibition (or induction of apoptosis), cells cultured 3 to 5 days, MTT (CCK8); read-out: IC50 H1581 (FGFR1 amp)
KYSE70 = experiment: In vitro growth inhibition of PI3KCA amplified/mutant tumor cells KYSE70; assay type: cell-based; conditions: Homo sapiens, KYSE-70; KYSE70; PI3KCA amp; KIT G779C; read-out: IC50 growth inhibition
Procedure: as §1, with “Suspension” for “Adherent cells were digested with 0.25% trypsin-EDTA (Gibco). Suspension”
as §6, §4

KATO III (FGFR2 amp) = experiment: In vitro growth inhibition of KATO III tumor cells (MTT/CCK8); assay type: cell-based, Human; conditions: Homo sapiens, KATO III; in vitro growth inhibition (or induction of apoptosis), cells cultured 3 to 5 days, MTT (CCK8); read-out: IC50 KATO III (FGFR2 amp)
SNU-16 = experiment: In vitro growth inhibition of SNU-16 cells; assay type: cell-based; conditions: Homo sapiens, FGFR2 amp
Procedure: as §1, §2, §3, §4, §5

NCI-H460 = experiment: In vitro growth inhibition of PI3KCA amplified/mutant tumor cells NCI-H460; assay type: cell-based; conditions: Homo sapiens; NCI-H460; PI3KCA E545K; KRAS Q61H; read-out: IC50 growth inhibition
Procedure: as §1, with “Suspension” for “Adherent cells were digested with 0.25% trypsin-EDTA (Gibco). Suspension”
as §6, §4

KCL-22 (BCR-ABL) = experiment: In vitro growth inhibition of KCL-22 tumor cells (MTT/CCK8); assay type: cell-based, Human; conditions: Homo sapiens, KCL-22; in vitro growth inhibition (or induction of apoptosis), cells cultured 3 to 5 days, MTT (CCK8); read-out: IC50 KCL-22 (BCR-ABL)
AN3-CA = experiment: In vitro growth inhibition of AN3-CA cells; assay type: cell-based; conditions: Homo sapiens, FGFR2 mutant
Procedure: as §1, §2, §3, §4, §5

Compound: COc1cc2nccc(Oc3ccc(NC(=O)Nc4cc(C(C)(C)C)nn4C)c(Cl)c3Cl)c2cc1C(N)=O [Compound 38, 4-{4-[3-(5-tert-butyl-2-methyl-2H-pyrazol-3-yl)-ureido]-2,3-dichloro-phenoxy}-7-methoxyquinolin-6-carboxamide]
- IC50 (RT112/84): 10.1 nM
- IC50 (MOLM-13 (FLT3-ITD)): 0.85 nM
- IC50 (JHH-7): 9.89 nM
- IC50 (A375): 16.7 nM
- IC50 (SK-OV-3): 32.3 nM
- IC50 (PLC/PRF/5): 2.08 nM
- IC50 (H1581 (FGFR1 amp)): 0.29 nM
- IC50 (KYSE70): 9.7 nM
- IC50 (KATO III (FGFR2 amp)): 0.18 nM
- IC50 (SNU-16): 2.03 nM
- IC50 (NCI-H460): 25.7 nM
- IC50 (KCL-22 (BCR-ABL)): 0.481 nM
- IC50 (AN3-CA): 3.67 nM

Compound: COCCOc1cc2nccc(Oc3ccc(NC(=O)Nc4cc(C(C)(C)C)n[nH]4)c(Cl)c3)c2cc1NC(C)=O [Compound 66, N-[4-{4-[3-(5-tert-butyl-2H-pyrazol-3-yl)-ureido]-3-chloro-phenoxy}-7-(2-methoxy-ethoxy)-quinolin-6-yl]-acetamide]
- IC50 (RT112/84): 25.6 nM
- IC50 (MOLM-13 (FLT3-ITD)): 0.87 nM
- IC50 (JHH-7): 12.9 nM
- IC50 (A375): 31.5 nM
- IC50 (SK-OV-3): 42.3 nM
- IC50 (PLC/PRF/5): 2.67 nM
- IC50 (H1581 (FGFR1 amp)): 2.03 nM
- IC50 (KYSE70): 29.6 nM
- IC50 (KATO III (FGFR2 amp)): 0.08 nM
- IC50 (SNU-16): 1.01 nM
- IC50 (NCI-H460): 26.2 nM
- IC50 (KCL-22 (BCR-ABL)): 3.12 nM
- IC50 (AN3-CA): 3.95 nM

Compound: CN1CCN(CCCOc2cc3nccc(Oc4ccc(NC(=O)Nc5cc(C(C)(C)C)n[nH]5)c(Cl)c4Cl)c3cc2C(N)=O)CC1 [Compound 95]
- IC50 (RT112/84): 9.76 nM
- IC50 (MOLM-13 (FLT3-ITD)): 1.75 nM
- IC50 (JHH-7): 17.6 nM
- IC50 (A375): 62.1 nM
- IC50 (SK-OV-3): 26.4 nM
- IC50 (PLC/PRF/5): 2.37 nM
- IC50 (H1581 (FGFR1 amp)): 7.88 nM
- IC50 (KYSE70): 18.9 nM
- IC50 (KATO III (FGFR2 amp)): 0.91 nM
- IC50 (SNU-16): 3.34 nM
- IC50 (NCI-H460): 34.5 nM
- IC50 (KCL-22 (BCR-ABL)): 7.03 nM
- IC50 (AN3-CA): 3.89 nM
